Test results: publication PMC11550998, “Novel 5-HT7 receptor antagonists modulate intestinal immune responses and reduce severity of colitis” (American Journal of Physiology - Gastrointestinal and Liver …, 2024)

How the values were obtained:
[1] = Mouse in vivo pharmacokinetic studies; set-up: species or system C57BL/6 male mice; conditions: for bioavailability / AUC / Cmax / Tmax / clearance / half-life: male; for bioavailability: C57BL/6, mouse, plasma, oral, read-out: %F (oral bioavailability); for AUC / Cmax / Tmax / clearance / half-life: C57BL/6, plasma
Protocol: Adult C57BL/6 male mice (2–4 mo old, body weight ranging from 20 to 25 g, Charles River Laboratories) were maintained under controlled temperature (23 ± 1°C) and lighting (lights on 6:00 AM–6:00 PM) with food and water provided ad libitum. Pharmacokinetic studies were performed either via intravenous bolus infusion or through oral gavage. Mice were administered each compound intravenously by tail vein injection (1 mg/kg) or orally through gavage (5 mg/kg). Serial blood samples were collected at 5, 15, and 30 min and 1, 2, 4, 8, and 24 h after intravenous administration, and at 15, 30 min, and 1, 2, 4, 8, and 24 h after oral gavage administration. All blood samples were centrifuged at 1,500 g for 5 min. Pharmacokinetic study procedures were approved by Temple University’s Institutional Animal Care and Usage Committee and were in accordance with National Institutes of Health (NIH) guidelines. For all in vivo efficacy studies, experiments were approved by the animal ethics committee of McMaster University and conducted under Canadian guidelines for animal research.
Plasma concentrations were determined using an LC-MS/MS method. Briefly, 100-µL acetonitrile with an internal standard solution (Diltiazem, 0.1 μg/mL) was added to 50-µL plasma or tissue homogenate. After being vortexed for 1 min, the mixture was centrifuged at 3,000 g for 5 min. LC-MS/MS analysis was carried out using a high-performance liquid chromatography system consisting of an Agilent 1100 system interfaced to an API4000 SCIEX triple-quadrupole tandem mass spectrometer (Applied Biosystems/MDS Sciex, Foster City, CA). MC-170073, MC-230078, MC-230079, and the internal standard were separated by using a Phenomenex (Torrance, CA) C18 column (2.0 × 50 mm). The mobile phase consisted of solvent A (0.1% formic acid in water) and solvent B (0.1% formic acid in acetonitrile). A linear gradient of solvent B from 5 to 95% was used. The detection and quantification of analytes were performed with the m/z transition 347/191 for MC-170073, MC-230078, and MC-230079, and m/z 415/178 for diltiazem.

[2] = system: acute DSS-induced colitis; experiment: Acute DSS-induced colitis model; assay type: in vivo, C57BL/6 mice
Excerpt: C57BL/6 (Taconic, Cambridge City, IN) for the DSS model of colitis, as well as C57BL/6 and Rag1^−/− mice (Jackson Laboratory, Bar Harbor, ME) for the T-cell transfer model, were kept in sterilized, filter-topped cages under specific pathogen-free conditions upon arrival and fed autoclaved food. Male mice aged 8–10 wk were used for all experiments. Mice were acclimatized for 7 days before the start of any experiments. All experiments were approved by the animal ethics committee of McMaster University and conducted under Canadian guidelines for animal research.
For induction of acute colitis, DSS (molecular mass 40 kDa; ICN; Biomedicals Incorporate, Solon, OH) was added to autoclaved drinking water at a final concentration of 4 or 5% wt/vol for 5 days. For the induction of chronic colitis, DSS was added to normal drinking water at a final concentration of 4% for 5 days, followed by 7 days of water. This cycle was repeated twice thereafter, with 2% DSS. Control mice received vehicle or normal drinking water.
For acute DSS-induced colitis, C576BL/6 mice were treated with MC-170073 (10 mg/kg of body wt) or vehicle (10% DMSO in normal saline) via intraperitoneal injection once daily for 6 days, starting 1 day before the beginning of DSS. In a separate experiment, C57BL/6 mice were orally administered with MC-230078 (10 mg/kg) or vehicle twice daily for 5 days, starting from the beginning of DSS. For chronic DSS-induced colitis, C57BL/6 mice were treated with MC-170073 (10 mg/kg ip) or vehicle once daily for 6 days, starting 1 day before the beginning of the third cycle. Last, for CD4^+CD45RB^high T cell-induced chronic colitis, reconstituted Rag1^−/− mice were orally administered MC-230078 (5 mg/kg or 10 mg/kg) or a vehicle twice daily for 10 days starting from week 6 post-reconstitution of T cells.
Disease activity index (DAI) is a combined score of weight loss, stool consistency, and fecal bleeding and was blindly assessed using a previously published scoring system ([19]). This scoring system was defined as follows: weight loss: 0 = no loss; 1 = 1–5%; 2 = 5–10%; 3 = 10–20%; 4 = 20%+; stool, 0 = normal; 2 = loose stool; 4 = diarrhea; and bleeding: 0 = no blood; 2 = hemoccult positive (Hemoccult II; Beckman Coulter, Fullerton, CA); and 4 = gross blood (blood around anus). DAI was measured across all days of DSS treatment. Macroscopic damage scores were blindly scored using a previously published scoring system for DSS-induced colitis ([19]).
Colonic myeloperoxidase (MPO) levels were measured following a published protocol ([19]). Briefly, colonic tissue samples were homogenized in ice-cold 50 mmol·L^−1 potassium phosphate buffer containing 0.5% hexadecyl trimethyl ammonium bromide (pH = 6.0) (Sigma). Homogenates were centrifuged, the supernatant was removed, and an aliquot was then added to a solution containing potassium phosphate buffer, O-dianisidine, and hydrogen peroxide (Sigma-Aldrich). The absorbance was measured at 450 nm by a spectrophotometer (model EL808, BioTek). MPO level was expressed in units per milligram of tissue, where 1 U is defined as the quantity of enzyme able to convert 1 μmol hydrogen peroxide to water per minute at room temperature.
Segments of the proximal colon were washed with PBS, fixed in 10% neutral-buffered formalin, washed with ethanol, and embedded in paraffin. Hematoxylin-eosin (H&E)-stained colonic tissue sections were scored using a previously published system ([19]): crypt architecture (normal = 0; severe crypt distortion with loss of entire crypts = 3), degree of inflammatory cell infiltration (normal = 0; dense inflammatory infiltrate = 3), muscle thickening (base of crypt sits on the muscularis mucosae = 0; marked muscle thickening present = 3), goblet cell depletion (absent = 0; present = 1), and crypt abscess (absent = 0; present = 1). A breakdown of scoring criteria can be seen in Supplemental Table S1. The histological damage score is the sum of each individual score. […]

CYP2C9 = CYP2C9 (Homo sapiens, UniProt P11712); experiment: Cytochrome P450 inhibition assay, 2C9 (fluorescent substrate); assay type: in vitro ADME; conditions: expressed enzyme
Protocol: Compounds were assessed for their ability to inhibit human cytochrome P450 3A4 using testosterone as a substrate and LC-MS/MS analysis, whereas the 2D6 and 2C9 assays used fluorescent substrates and EnVision plate reader analysis. Expressed enzymes were used to minimize nonspecific binding and membrane partitioning issues ([15]).

[3] = 5 mg/kg, 5 mg/kg oral vs 1 mg/kg IV
[4] = 4% DSS 5 days, 10 mg/kg ip once daily 6 days
[5] = 4% DSS 5 days, 10 mg/kg ip once daily 6 days, vs vehicle-treated mice
[6] = 5% DSS 5 days, 10 mg/kg orally twice daily 5 days
[7] = 5% DSS, 10 mg/kg orally twice daily 5 days
[8] = 5% DSS, 10 mg/kg orally twice daily, day 5 post-DSS vs vehicle

Chain of CYP2C9 (P11712 whole entry): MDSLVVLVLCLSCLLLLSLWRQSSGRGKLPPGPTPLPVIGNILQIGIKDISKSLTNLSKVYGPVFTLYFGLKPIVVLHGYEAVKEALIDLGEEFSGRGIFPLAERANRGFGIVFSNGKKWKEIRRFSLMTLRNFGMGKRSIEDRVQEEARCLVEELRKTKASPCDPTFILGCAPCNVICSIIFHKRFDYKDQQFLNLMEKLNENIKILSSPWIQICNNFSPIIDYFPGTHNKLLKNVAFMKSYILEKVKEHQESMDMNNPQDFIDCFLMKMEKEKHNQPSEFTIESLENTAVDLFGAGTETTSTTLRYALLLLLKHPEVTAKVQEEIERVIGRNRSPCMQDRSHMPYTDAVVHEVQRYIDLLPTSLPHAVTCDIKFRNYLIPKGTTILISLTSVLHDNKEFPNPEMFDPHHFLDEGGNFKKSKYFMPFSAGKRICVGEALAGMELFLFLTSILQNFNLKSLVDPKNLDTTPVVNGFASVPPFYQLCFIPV

| bioavailability [1, 3] [%] | AUC ([1]; IV, 1 mg/kg) [ng·h/mL] | Cmax ([1]; IV, 1 mg/kg) [ng/mL] | Tmax ([1]; IV, 1 mg/kg) [h] | clearance ([1]; IV, 1 mg/kg) [mL/min] | half-life ([1]; IV, 1 mg/kg) [h] | AUC ([1]; oral gavage, 5 mg/kg) [ng·h/mL] | Cmax ([1]; oral gavage, 5 mg/kg) [ng/mL] | Tmax ([1]; oral gavage, 5 mg/kg) [h] | half-life ([1]; oral gavage, 5 mg/kg) [h] | CL ([1]; oral gavage, 5 mg/kg) [L/h] | IC50 (CYP2C9) [µM] | Compound | other results |
| --- | --- | --- | --- | --- | --- | --- | --- | --- | --- | --- | --- | --- | --- |
| 17 | 142 | 81 | 0.25 | 2.08 | 4.4 | 124 | 49 | 0.25 | 3.4 | 0.73 | > 10 | CCC1(CC)CC(CCN2CCN(c3ccc(O)cc3)CC2)OC1=O (centres unmarked) [MC-170073] | %F (oral bioavailability) ([1]; 5 mg/kg oral vs 1 mg/kg IV): 17.5%; colonic IL-1β level [2, 4]: lower levels; colonic IL-6 level [2, 4]: lower levels; colonic MPO level [2, 4]: lower levels; colonic TNF-α level [2, 4]: lower levels; DAI scores [2, 5]: significantly lower; histological damage scores [2, 5]: significantly less severe; macroscopic scores [2, 5]: lower |
| 13.7 | 277 | 527 | 0.083 | 1.4 | 3.97 | 190 | 123 | 0.5 | 3.78 | 0.511 | > 10 | CCC1(CC)C[C@@H](CCN2CCN(c3ccc(O)cc3)CC2)OC1=O [MC-230078] | DAI [2, 6]: significantly lower; body weight change during DSS [2, 6]: no significant difference; colonic IL-1β level [2, 7]: significantly lower; colonic MPO level [2, 7]: significantly lower; histological scores [2, 8]: significantly lower; macroscopic scores [2, 8]: significantly lower |
